Consider 19 compounds from PubChem BioAssay AID248 (DTP/NCI, 2004).

The experiment deals with L1210 leukemia ip in BDF1 mice, survival T/C. Put plainly: NCI In Vivo Anticancer Drug Screen. Data for tumor model L1210 Leukemia (intraperitoneal) in B6D2F1 (BDF1) mice. As to conditions: endpoint: mean survival time, higher = longer survival. Summed up: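 Each compound was tested against a transplantable tumor grown in mice. The endpoint was survival, with treated animals benchmarked against vehicle controls as a simple ratio.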

The mark [1] stands for this setting: dose: 100.0 mg/kg/injection, schedule: Q01DX009 (ip), vehicle: saline with Tween-80.
Setting [2] is: dose: 200.0 mg/kg/injection, schedule: Q01DX009 (ip), vehicle: saline with Tween-80.
Setting [3] is: dose: 400.0 mg/kg/injection, schedule: Q01DX009 (ip), vehicle: saline with Tween-80.
Setting [4] is: dose: 100.0 mg/kg/injection, schedule: Q01DX009 (ip), vehicle: Klucel (hydroxypropylcellulose) (HPC).
Setting [5] is: dose: 200.0 mg/kg/injection, schedule: Q01DX009 (ip), vehicle: Klucel (hydroxypropylcellulose) (HPC).
Setting [6] is: dose: 400.0 mg/kg/injection, schedule: Q01DX009 (ip), vehicle: Klucel (hydroxypropylcellulose) (HPC).
[7] abbreviates: dose: 100.0 mg/kg/injection, schedule: Q01DX009 (ip), vehicle: saline.
Setting [8] is: dose: 100.0 mg/kg/injection, schedule: Q04DX003 (ip), vehicle: saline.
Where [9] appears, read: dose: 200.0 mg/kg/injection, schedule: Q01DX009 (ip), vehicle: saline.
Setting [10] is: dose: 200.0 mg/kg/injection, schedule: Q04DX003 (ip), vehicle: saline.
Where [11] appears, read: dose: 400.0 mg/kg/injection, schedule: Q01DX009 (ip), vehicle: saline.
[12] abbreviates: dose: 400.0 mg/kg/injection, schedule: Q04DX003 (ip), vehicle: saline.
The mark [13] stands for this setting: dose: 25.0 mg/kg/injection, schedule: Q04DX003 (ip), vehicle: Klucel (hydroxypropylcellulose) (HPC).
Where [14] appears, read: dose: 100.0 mg/kg/injection, schedule: Q01DX009 (ip), vehicle: water.
Where [15] appears, read: dose: 200.0 mg/kg/injection, schedule: Q01DX009 (ip), vehicle: water.
Where [16] appears, read: dose: 400.0 mg/kg/injection, schedule: Q01DX009 (ip), vehicle: water.
Setting [17] is: dose: 100.0 mg/kg/injection, schedule: Q01DX001 (ip), vehicle: carboxymethylcellulose (CMC).
The mark [18] stands for this setting: dose: 12.5 mg/kg/injection, schedule: Q04DX003 (ip), vehicle: saline.

Each structure is given as a SMILES string. Where “and” joins values, the source holds several entries; their conditions need not be identical. Identical values can stand only once. Toxic doses and inconclusive results are not listed.

For `O=C(N1CCC2(CC1)SSC1(CCN(C(=O)C(F)(F)F)CC1)S2)C(F)(F)F`, the T/C under setting [1] was 97 % of control, the T/C under setting [2] was 97 % of control and the T/C under setting [3] is 95 % of control.
`Cc1ccc2cccc(CC(=O)O)c2c1`: the T/C was 104 % of control (dose: 100.0 mg/kg/injection, schedule: Q01DX005 (ip), vehicle: saline with Tween-80); 96 % of control under setting [1]; 112 % of control (dose: 200.0 mg/kg/injection, schedule: Q01DX005 (ip), vehicle: saline with Tween-80); 96 % of control under setting [2]; 108 % of control (dose: 400.0 mg/kg/injection, schedule: Q01DX005 (ip), vehicle: saline with Tween-80); 115 % of control under setting [3].
As for `CCN(C(=O)Nc1ccc(SC)cc1)c1ccccc1`, the T/C reads like this: under setting [4], 103 % of control; under setting [5], 108 % of control.
`Cc1ccc(S(=O)(=O)NCCCCC(N)C(=O)O)cc1` (configuration not stated): the T/C under setting [4] is 98 % of control; the T/C (dose: 100.0 mg/kg/injection, schedule: Q04DX003 (ip), vehicle: Klucel (hydroxypropylcellulose) (HPC)) was 98 % of control; the T/C under setting [5] was 98 % of control; the T/C (dose: 200.0 mg/kg/injection, schedule: Q04DX003 (ip), vehicle: Klucel (hydroxypropylcellulose) (HPC)) was 108 % of control; the T/C under setting [6] is 100 % of control; the T/C (dose: 400.0 mg/kg/injection, schedule: Q04DX003 (ip), vehicle: Klucel (hydroxypropylcellulose) (HPC)) is 98 % of control.
On to `CC1(C)c2ccccc2C(=O)C1Cc1ccccc1` (configuration not stated), for which the T/C runs as follows: under setting [7], 102 % of control; under setting [8], 107 % of control; under setting [9], 101 % of control; under setting [10], 104 % of control; under setting [11], 98 % of control; under setting [12], 96 % of control.
As for `Cc1cc(OC(=O)Nc2cc(C(F)(F)F)ccc2Cl)ccc1Cl`, the T/C under setting [4] is 98 % of control, the T/C under setting [5] was 104 % of control and the T/C under setting [6] was 95 % of control.
Take `CC(=O)Nc1ccn(CC(=O)c2cccs2)c(=O)n1`: the T/C runs as follows: under setting [7], 96 % of control; under setting [8], 95 % of control; under setting [9], 94 % of control; under setting [10], 101 % of control; under setting [11], 89 % of control; under setting [12], 110 % of control.
As for `CNC(Cc1ccccc1)C1CCCCC1` (configuration not stated), the T/C was 93 % of control (dose: 6.0 mg/kg/injection, schedule: Q04DX003 (ip), vehicle: Klucel (hydroxypropylcellulose) (HPC)); 98 % of control (dose: 12.0 mg/kg/injection, schedule: Q01DX009 (ip), vehicle: Klucel (hydroxypropylcellulose) (HPC)); 98 % of control (dose: 12.0 mg/kg/injection, schedule: Q04DX003 (ip), vehicle: Klucel (hydroxypropylcellulose) (HPC)); 98 % of control (dose: 25.0 mg/kg/injection, schedule: Q01DX009 (ip), vehicle: Klucel (hydroxypropylcellulose) (HPC)); 95 % of control and 109 % of control under setting [13]; 95 % of control (dose: 50.0 mg/kg/injection, schedule: Q01DX009 (ip), vehicle: Klucel (hydroxypropylcellulose) (HPC)).
With `Nc1nc(SN=Nc2ccc(S(N)(=O)=O)cc2)c2[nH]cnc2n1`, the T/C is 110 % of control (dose: 0.16 mg/kg/injection, schedule: Q01DX Z (ip), vehicle: other); 111 % of control (dose: 1.5 mg/kg/injection, schedule: Q04DX003 (ip), vehicle: saline with Tween-80); 165 % of control (dose: 2.0 mg/kg/injection, schedule: Q01DX Z (ip), vehicle: methylcellulose (MC)); 154 % of control (dose: 3.0 mg/kg/injection, schedule: Q01DX Z (ip), vehicle: methylcellulose (MC)); 153 % of control (dose: 5.0 mg/kg/injection, schedule: Q01DX Z (ip), vehicle: other); 155 % of control (dose: 12.0 mg/kg/injection, schedule: Q04DX003 (ip), vehicle: saline with Tween-80). For the same compound, the T/C is, setting by setting: (dose: 17.0 mg/kg/injection, schedule: Q04DX003 (ip), vehicle: saline with Tween-80) 158 % of control and 159 % of control; (dose: 20.0 mg/kg/injection, schedule: Q01DX Z (ip), vehicle: methylcellulose (MC)) 124 % of control; (dose: 25.0 mg/kg/injection, schedule: Q04DX003 (ip), vehicle: saline with Tween-80) 151 % of control and 190 % of control; (dose: 37.0 mg/kg/injection, schedule: Q04DX003 (ip), vehicle: saline with Tween-80) 155 % of control and 164 % of control; (dose: 68.0 mg/kg/injection, schedule: Q01DX Z (ip), vehicle: other) 109 % of control; (dose: 102.0 mg/kg/injection, schedule: Q01DX Z (ip), vehicle: other) 102 % of control.
With `O=C(/C=C/c1ccc2c(c1)OCO2)c1cccc([N+](=O)[O-])c1`, the T/C reads like this: (dose: 100.0 mg/kg/injection, schedule: Q04DX002 (ip), vehicle: Klucel (hydroxypropylcellulose) (HPC)) 93 % of control; (dose: 200.0 mg/kg/injection, schedule: Q04DX002 (ip), vehicle: Klucel (hydroxypropylcellulose) (HPC)) 104 % of control; (dose: 400.0 mg/kg/injection, schedule: Q04DX002 (ip), vehicle: Klucel (hydroxypropylcellulose) (HPC)) 100 % of control.
Turning to `O=C(Cc1ccccc1)Cc1ccccc1`, the T/C is 104 % of control (dose: 25.0 mg/kg/injection, schedule: Q01DX009 (ip), vehicle: water); 115 % of control (dose: 50.0 mg/kg/injection, schedule: Q01DX009 (ip), vehicle: water); 104 % of control under setting [14]; 94 % of control under setting [15]; 94 % of control under setting [16].
Consider `Cc1ccccc1SCN(CSc1ccccc1C)C(C)(C)CC(C)(C)C`, for which the T/C under setting [17] is 101 % of control.
Take `O=C(O)C(O)C1CCCCC1` (configuration not stated): the T/C by setting is: under setting [17], 91 % of control; (dose: 200.0 mg/kg/injection, schedule: Q01DX001 (ip), vehicle: carboxymethylcellulose (CMC)) 104 % of control; (dose: 400.0 mg/kg/injection, schedule: Q01DX001 (ip), vehicle: carboxymethylcellulose (CMC)) 94 % of control.
With `CN1CCN(c2ccccc2N)CC1`, the T/C (dose: 5.0 mg/kg/injection, schedule: Q04DX003 (ip), vehicle: saline) is 107 % of control; the T/C (dose: 10.0 mg/kg/injection, schedule: Q04DX003 (ip), vehicle: saline) was 96 % of control; the T/C (dose: 20.0 mg/kg/injection, schedule: Q04DX003 (ip), vehicle: saline) was 96 % of control.
In the case of `Cc1ncc2n1C=CN(C(=O)c1ccc([N+](=O)[O-])cc1)C2O` (configuration not stated), the T/C by setting is: under setting [14], 98 % of control; under setting [15], 98 % of control; under setting [16], 93 % of control.
For the compound `Nc1ccccc1O`, the T/C by setting is: (dose: 12.5 mg/kg/injection, schedule: Q04DX003 (ip), vehicle: Klucel (hydroxypropylcellulose) (HPC)) 100 % of control; under setting [13], 100 % of control; (dose: 50.0 mg/kg/injection, schedule: Q04DX003 (ip), vehicle: Klucel (hydroxypropylcellulose) (HPC)) 92 % of control; under setting [7], 110 % of control; under setting [9], 105 % of control; under setting [11], 108 % of control. Besides, the T/C (dose: 600.0 mg/kg/injection, schedule: Q01DX009 (ip), vehicle: saline) is 92 % of control.
Consider `C=CC[P+](CCCC)(CCCC)CCCC`, for which the T/C (dose: 6.25 mg/kg/injection, schedule: Q04DX003 (ip), vehicle: saline) is 102 % of control and the T/C under setting [18] was 91 % of control.
With `CCCCn1ccnc1`, the T/C is 105 % of control under setting [18] and 103 % of control (dose: 25.0 mg/kg/injection, schedule: Q04DX003 (ip), vehicle: saline).
As for `COC(=O)c1ccc(Cn2ccc(=O)n(Cc3ccc(C(=O)OC)cc3)c2=O)cc1`, the T/C was 91 % of control (dose: 100.0 mg/kg/injection, schedule: Q04DX003 (ip), vehicle: saline with Tween-80); 88 % of control (dose: 200.0 mg/kg/injection, schedule: Q04DX003 (ip), vehicle: saline with Tween-80); 90 % of control (dose: 400.0 mg/kg/injection, schedule: Q04DX003 (ip), vehicle: saline with Tween-80).
